Results on one compound are retold here after article PMC8217011, “Natural brominated phenoxyphenols kill persistent and biofilm-incorporated cells of MRSA and other pathogenic bacteria” (Applied Microbiology and Biotechnology, 2020).

Assay [1] concerns MRSA strain containing pLA03::mtlA. Description: MIC in recombinant strain, mtlA overexpression. The settings on record: for MIC: Staphylococcus aureus, MRSA. It counts as cell-based, Staphylococcus aureus. As to the method: (§1) To corroborate the role as potential determinants of resistance, mtlA and tetR were overexpressed under control of an anhydrotetracycline (Atc)-inducible promoter, and the effect on sensitivity toward 3-bromo-PP was analysed (Fig. 4e). […] However, induction of mtlA or tetR expression in the presence of Atc strongly rendered the cells more susceptible to 3-bromo-PP resulting in MICs of 0.019 μM for mtlA and 0.078 μM for tetR overexpression, respectively. This translates into a […] and 8-fold increased sensitivity during mtlA or tetR overexpression, respectively, compared with the empty vector control (Fig. 4e).

For assay [2], the system named is MRSA vector control strain harbouring empty plasmid pLA03. As to the kind of experiment: MIC in recombinant strain, empty vector control. It counts as cell-based. The settings on record: Staphylococcus aureus. The protocol: as §1
The test system of another assay is MtlA. As to the kind of experiment: Global proteome analysis of sublethally treated cells. It counts as cell-based, Staphylococcus aureus. The following applies: Mu50 cells, sublethal concentration allowing ca. 50% residual growth. The protocol:
After in-solution digestion (ISD) peptides were desalted on home-made C18 StageTips (Rappsilber et al. [2007]). Briefly, the peptide solution was passed over the MeOH pre-conditioned and 0.5% formic acid (FA) equilibrated StageTip. Immobilised peptides were then washed twice with 0.5% (v/v) FA. Washed peptides were eluted from the StageTips with 80% (v/v) ACN and 0.5% (v/v) FA and dried using a vacuum concentrator (Eppendorf). Before LC-MS, peptide samples were resuspended in 10 μL 0.1% (v/v) FA.
LC-MS/MS experiments were performed on an Orbitrap Elite instrument (Michalski et al. [2012]) (Thermo) that was coupled to an EASY-nLC 1000 liquid chromatography (LC) system (Thermo). […] Product ion spectra were recorded in a data-dependent fashion in the ion trap (ITMS) in a variable scan range and at a rapid scan rate. […] Peptides were analysed using a repeating cycle consisting of a full precursor ion scan (1.0 × 10^6 ions or 50 ms) followed by 15 product ion scans (1.0 × 10^4 ions or 100 ms), where peptides are isolated based on their intensity in the full survey scan (threshold of 500 counts) for tandem mass spectrum (MS2) generation that permits peptide sequencing and identification. […]
RAW spectra were submitted to an Andromeda (Cox et al. [2011]) search in MaxQuant (version 1.5.3.30) using the default settings (Cox and Mann [2008]). Label-free quantification was activated (Cox et al. [2014]). […]

Structures are written as SMILES.

As for `Oc1c(Br)cc(Br)c(Br)c1Oc1ccc(Br)cc1Br` [3-bromo-PP, 3,4,6-tribromo-2-(2′,4′-dibromophenoxy)phenol], the MIC – broadly, the lowest concentration that inhibits growth of the organism – in assay [1] (induced with Atc (1 μg/mL anhydrotetracycline)) was 0.019 µM; in assay [1] (non-induced), 0.312 µM; in assay [2] it was approximately 0.625 µM. Besides, the “increased sensitivity compared with the empty vector control” value in assay [1] (mtlA overexpression) came to 33 fold. Also, the “downregulation of MtlA protein” value with MtlA is “approx. 2.5 fold”.
